Key:
Assay in all cases: KINOMEscan
Type in all cases: binding
SRMS = SRMS (Homo sapiens (Human), UniProt Q9H3Y6); settings: 10000 nM, read-out: Percent Control
MLCK = MLCK (Homo sapiens (Human), UniProt Q32MK0); settings: 10000 nM, read-out: Percent Control
TNNI3K = TNNI3K (Homo sapiens (Human), UniProt Q59H18); settings: 10000 nM, read-out: Percent Control
FLT4 = FLT4 (Homo sapiens (Human), UniProt P35916); settings: FLT4, 10000 nM; read-out: Percent Control
PAK2 = PAK2 (Homo sapiens (Human), UniProt Q13177); settings: PAK2, 10000 nM; read-out: Percent Control
YANK2 = YANK2 (Homo sapiens (Human), UniProt Q9NY57); settings: YANK2, 10000 nM; read-out: Percent Control
CDK4-cyclinD3 = CDK4-cyclinD3 (Homo sapiens (Human), UniProt P11802); settings: CDK4-cyclinD3, 10000 nM; read-out: Percent Control
Chain of CDK4-cyclinD3 (P11802 whole entry): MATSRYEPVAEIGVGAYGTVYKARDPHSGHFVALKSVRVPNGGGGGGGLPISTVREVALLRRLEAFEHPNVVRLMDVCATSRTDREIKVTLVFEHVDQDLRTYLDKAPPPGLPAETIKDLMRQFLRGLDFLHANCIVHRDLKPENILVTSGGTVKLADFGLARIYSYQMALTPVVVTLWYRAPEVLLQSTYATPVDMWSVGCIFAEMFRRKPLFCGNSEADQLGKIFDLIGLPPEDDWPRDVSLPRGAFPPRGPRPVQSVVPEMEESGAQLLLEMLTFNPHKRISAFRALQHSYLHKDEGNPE
Chain of CDK4-cyclinD3 (P30281 whole entry partner): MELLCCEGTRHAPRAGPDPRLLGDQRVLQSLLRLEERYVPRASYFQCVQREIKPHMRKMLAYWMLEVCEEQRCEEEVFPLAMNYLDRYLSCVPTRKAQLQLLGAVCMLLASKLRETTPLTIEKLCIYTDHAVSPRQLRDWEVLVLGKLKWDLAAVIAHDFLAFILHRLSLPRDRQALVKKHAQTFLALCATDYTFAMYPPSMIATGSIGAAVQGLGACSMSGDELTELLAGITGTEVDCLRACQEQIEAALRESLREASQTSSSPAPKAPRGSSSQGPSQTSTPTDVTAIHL

AMPK-alpha1 = AMPK-alpha1 (Homo sapiens (Human), UniProt Q13131); settings: AMPK-alpha1, 10000 nM; read-out: Percent Control
Chain of AMPK-alpha1 (Q13131 whole entry): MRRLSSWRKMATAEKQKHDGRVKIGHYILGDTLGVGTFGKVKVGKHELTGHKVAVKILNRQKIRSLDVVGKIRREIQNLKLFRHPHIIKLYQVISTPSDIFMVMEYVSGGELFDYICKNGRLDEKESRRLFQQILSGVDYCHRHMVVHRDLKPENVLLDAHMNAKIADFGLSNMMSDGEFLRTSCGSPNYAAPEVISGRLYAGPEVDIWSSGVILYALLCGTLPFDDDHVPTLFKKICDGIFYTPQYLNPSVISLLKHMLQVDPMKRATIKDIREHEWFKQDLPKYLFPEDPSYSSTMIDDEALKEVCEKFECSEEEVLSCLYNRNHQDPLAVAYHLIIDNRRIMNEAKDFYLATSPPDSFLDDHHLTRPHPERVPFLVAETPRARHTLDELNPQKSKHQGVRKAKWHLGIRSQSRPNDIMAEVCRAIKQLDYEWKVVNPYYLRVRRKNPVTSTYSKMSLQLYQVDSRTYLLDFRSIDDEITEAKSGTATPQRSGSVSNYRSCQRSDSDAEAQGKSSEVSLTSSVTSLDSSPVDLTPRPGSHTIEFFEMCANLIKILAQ

SLK = SLK (Homo sapiens (Human), UniProt Q9H2G2); settings: 10000 nM, read-out: Percent Control
DCAMKL1 = DCAMKL1 (Homo sapiens (Human), UniProt O15075); settings: DCAMKL1, 10000 nM; read-out: Percent Control
MST3 = MST3 (Homo sapiens (Human), UniProt Q9Y6E0); settings: MST3, 10000 nM; read-out: Percent Control
EPHB4 = EPHB4 (Homo sapiens (Human), UniProt P54760); settings: EPHB4, 10000 nM; read-out: Percent Control
AURKA = AURKA (Homo sapiens (Human), UniProt O14965); settings: 10000 nM, read-out: Percent Control
ADCK4 = ADCK4 (Homo sapiens (Human), UniProt Q96D53); settings: ADCK4, 10000 nM; read-out: Percent Control
TIE2 = TIE2 (Homo sapiens (Human), UniProt Q02763); settings: TIE2, 10000 nM; read-out: Percent Control
Chain of TIE2 (Q02763 23-1124): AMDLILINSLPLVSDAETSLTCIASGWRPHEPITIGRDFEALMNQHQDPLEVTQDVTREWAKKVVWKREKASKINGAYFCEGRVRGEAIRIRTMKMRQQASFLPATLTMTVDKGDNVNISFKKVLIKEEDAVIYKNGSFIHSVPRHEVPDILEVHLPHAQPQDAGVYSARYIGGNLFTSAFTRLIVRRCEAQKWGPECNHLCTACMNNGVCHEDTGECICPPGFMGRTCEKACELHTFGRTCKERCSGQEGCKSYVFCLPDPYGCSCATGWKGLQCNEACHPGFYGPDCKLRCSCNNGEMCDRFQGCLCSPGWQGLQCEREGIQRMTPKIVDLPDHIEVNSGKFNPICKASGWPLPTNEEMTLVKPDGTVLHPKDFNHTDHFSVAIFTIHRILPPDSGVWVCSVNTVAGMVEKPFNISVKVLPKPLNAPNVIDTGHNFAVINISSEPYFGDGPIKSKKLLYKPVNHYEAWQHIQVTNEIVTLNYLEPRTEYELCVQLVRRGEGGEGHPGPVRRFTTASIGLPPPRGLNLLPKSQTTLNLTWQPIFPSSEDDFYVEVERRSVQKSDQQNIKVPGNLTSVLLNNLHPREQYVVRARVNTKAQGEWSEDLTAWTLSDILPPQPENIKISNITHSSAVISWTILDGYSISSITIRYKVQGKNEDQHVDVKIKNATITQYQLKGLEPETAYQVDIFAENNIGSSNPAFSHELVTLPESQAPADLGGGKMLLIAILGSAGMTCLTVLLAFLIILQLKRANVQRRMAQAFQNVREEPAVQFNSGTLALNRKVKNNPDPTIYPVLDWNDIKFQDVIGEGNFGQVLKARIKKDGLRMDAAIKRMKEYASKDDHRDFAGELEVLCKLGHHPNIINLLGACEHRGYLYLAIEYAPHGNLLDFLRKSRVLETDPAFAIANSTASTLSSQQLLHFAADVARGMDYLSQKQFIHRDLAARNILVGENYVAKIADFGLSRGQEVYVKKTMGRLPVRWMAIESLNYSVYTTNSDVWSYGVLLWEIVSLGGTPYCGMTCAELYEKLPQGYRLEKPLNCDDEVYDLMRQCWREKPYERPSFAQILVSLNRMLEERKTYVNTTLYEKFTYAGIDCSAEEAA

WNK4 = WNK4 (Homo sapiens (Human), UniProt Q96J92); settings: WNK4, 10000 nM; read-out: Percent Control
Chain of WNK4 (Q96J92 whole entry): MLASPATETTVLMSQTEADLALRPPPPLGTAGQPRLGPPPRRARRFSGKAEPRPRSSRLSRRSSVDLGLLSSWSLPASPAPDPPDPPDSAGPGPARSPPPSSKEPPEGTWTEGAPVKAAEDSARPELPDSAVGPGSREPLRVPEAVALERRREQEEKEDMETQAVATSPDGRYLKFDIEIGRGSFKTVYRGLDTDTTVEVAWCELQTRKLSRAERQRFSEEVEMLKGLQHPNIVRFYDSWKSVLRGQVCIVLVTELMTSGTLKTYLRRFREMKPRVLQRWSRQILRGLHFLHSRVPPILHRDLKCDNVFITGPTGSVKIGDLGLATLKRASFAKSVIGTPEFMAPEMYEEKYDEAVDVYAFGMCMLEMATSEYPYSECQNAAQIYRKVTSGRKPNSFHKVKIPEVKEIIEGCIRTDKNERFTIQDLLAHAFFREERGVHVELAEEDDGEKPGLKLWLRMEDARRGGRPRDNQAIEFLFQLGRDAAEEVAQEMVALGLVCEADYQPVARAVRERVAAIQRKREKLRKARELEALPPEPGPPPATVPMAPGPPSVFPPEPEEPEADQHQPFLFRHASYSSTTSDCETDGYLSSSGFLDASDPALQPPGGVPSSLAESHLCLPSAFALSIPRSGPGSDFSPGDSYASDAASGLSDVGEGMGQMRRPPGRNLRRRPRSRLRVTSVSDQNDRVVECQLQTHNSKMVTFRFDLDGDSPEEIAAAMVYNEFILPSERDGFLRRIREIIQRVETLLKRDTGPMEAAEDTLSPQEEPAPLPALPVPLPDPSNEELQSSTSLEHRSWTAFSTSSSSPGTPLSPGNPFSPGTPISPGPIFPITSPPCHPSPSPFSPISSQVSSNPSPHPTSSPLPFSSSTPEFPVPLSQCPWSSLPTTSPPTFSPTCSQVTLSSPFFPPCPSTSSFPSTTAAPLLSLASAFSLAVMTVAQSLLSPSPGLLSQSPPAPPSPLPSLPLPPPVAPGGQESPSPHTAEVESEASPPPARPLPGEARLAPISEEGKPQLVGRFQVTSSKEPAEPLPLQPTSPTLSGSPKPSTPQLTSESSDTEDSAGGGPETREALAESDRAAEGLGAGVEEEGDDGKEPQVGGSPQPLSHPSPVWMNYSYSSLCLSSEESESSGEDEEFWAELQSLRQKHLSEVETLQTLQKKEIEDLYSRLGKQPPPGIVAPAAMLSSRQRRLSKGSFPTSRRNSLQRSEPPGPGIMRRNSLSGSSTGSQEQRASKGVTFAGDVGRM

EGFR(G719C) = EGFR(G719C) (Homo sapiens (Human), UniProt P00533, G719C); settings: 10000 nM, read-out: Percent Control
ZAK = ZAK (Homo sapiens (Human), UniProt Q9NYL2); settings: 10000 nM, read-out: Percent Control
WNK3 = WNK3 (Homo sapiens (Human), UniProt Q9BYP7); settings: WNK3, 10000 nM; read-out: Percent Control
PIP5K1C = PIP5K1C (Homo sapiens (Human), UniProt O60331); settings: 10000 nM, read-out: Percent Control
Chain of PIP5K1C (O60331 whole entry): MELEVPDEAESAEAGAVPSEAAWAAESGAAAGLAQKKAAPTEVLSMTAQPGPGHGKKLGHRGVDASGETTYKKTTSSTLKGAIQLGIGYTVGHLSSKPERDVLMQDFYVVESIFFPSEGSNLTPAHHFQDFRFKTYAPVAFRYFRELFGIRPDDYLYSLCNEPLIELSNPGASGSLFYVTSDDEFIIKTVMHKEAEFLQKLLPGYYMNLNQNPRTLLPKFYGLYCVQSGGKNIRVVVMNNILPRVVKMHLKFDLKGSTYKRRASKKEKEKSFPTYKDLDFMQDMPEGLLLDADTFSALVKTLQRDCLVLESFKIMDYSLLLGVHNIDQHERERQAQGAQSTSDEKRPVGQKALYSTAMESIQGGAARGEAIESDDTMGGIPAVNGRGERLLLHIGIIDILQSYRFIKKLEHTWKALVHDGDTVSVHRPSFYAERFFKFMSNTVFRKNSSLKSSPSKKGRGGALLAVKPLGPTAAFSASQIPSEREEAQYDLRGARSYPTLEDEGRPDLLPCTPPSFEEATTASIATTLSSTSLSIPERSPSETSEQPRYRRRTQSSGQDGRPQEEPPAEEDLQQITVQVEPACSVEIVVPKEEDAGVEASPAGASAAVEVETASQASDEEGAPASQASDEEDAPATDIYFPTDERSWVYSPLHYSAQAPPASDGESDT

LTK = LTK (Homo sapiens (Human), UniProt P29376); settings: 10000 nM, read-out: Percent Control
SBK1 = SBK1 (Homo sapiens (Human), UniProt Q52WX2); settings: SBK1, 10000 nM; read-out: Percent Control
MEK6 = MEK6 (Homo sapiens (Human), UniProt P52564); settings: MEK6, 10000 nM; read-out: Percent Control
STK35 = STK35 (Homo sapiens (Human), UniProt Q8TDR2); settings: STK35, 10000 nM; read-out: Percent Control
AKT1 = AKT1 (Homo sapiens (Human), UniProt P31749); settings: AKT1, 10000 nM; read-out: Percent Control
SNARK = SNARK (Homo sapiens (Human), UniProt Q9H093); settings: 10000 nM, read-out: Percent Control
CDK11 = CDK11 (Homo sapiens (Human), UniProt Q9BWU1); settings: CDK11, 10000 nM; read-out: Percent Control
MYLK = MYLK (Homo sapiens (Human), UniProt Q15746); settings: 10000 nM, read-out: Percent Control
[1] = target: TYK2(JH2domain-pseudokinase) (Homo sapiens (Human), UniProt P29597); settings: 10000 nM, read-out: Percent Control
LKB1 = LKB1 (Homo sapiens (Human), UniProt Q15831); settings: LKB1, 10000 nM; read-out: Percent Control
PIK3CA(Q546K) = PIK3CA(Q546K) (Homo sapiens (Human), UniProt P42336, Q546K); settings: 10000 nM, read-out: Percent Control
PLK3 = PLK3 (Homo sapiens (Human), UniProt Q9H4B4); settings: PLK3, 10000 nM; read-out: Percent Control
DAPK3 = DAPK3 (Homo sapiens (Human), UniProt O43293); settings: DAPK3, 10000 nM; read-out: Percent Control
IKK-alpha = IKK-alpha (Homo sapiens (Human), UniProt O15111); settings: 10000 nM, read-out: Percent Control
Chain of IKK-alpha (O15111 whole entry): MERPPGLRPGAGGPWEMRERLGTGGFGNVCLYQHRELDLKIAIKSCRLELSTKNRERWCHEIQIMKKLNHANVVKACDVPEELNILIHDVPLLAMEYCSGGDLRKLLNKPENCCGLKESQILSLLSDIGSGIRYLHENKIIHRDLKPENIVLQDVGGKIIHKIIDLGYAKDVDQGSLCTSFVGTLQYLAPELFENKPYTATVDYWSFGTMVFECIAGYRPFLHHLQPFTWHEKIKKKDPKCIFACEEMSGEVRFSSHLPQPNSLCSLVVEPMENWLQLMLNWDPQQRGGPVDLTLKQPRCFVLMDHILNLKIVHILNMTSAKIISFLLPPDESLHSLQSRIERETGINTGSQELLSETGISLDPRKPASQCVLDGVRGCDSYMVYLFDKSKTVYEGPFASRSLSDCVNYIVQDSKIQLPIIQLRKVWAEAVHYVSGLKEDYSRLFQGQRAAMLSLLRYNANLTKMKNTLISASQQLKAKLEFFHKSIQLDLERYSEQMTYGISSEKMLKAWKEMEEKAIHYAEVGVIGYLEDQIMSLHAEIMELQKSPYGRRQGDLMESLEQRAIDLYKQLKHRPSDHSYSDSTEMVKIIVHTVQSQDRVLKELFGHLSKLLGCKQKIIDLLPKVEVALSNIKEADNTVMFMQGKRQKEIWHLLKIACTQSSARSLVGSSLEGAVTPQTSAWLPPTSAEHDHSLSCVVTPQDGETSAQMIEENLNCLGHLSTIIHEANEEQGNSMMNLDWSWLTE

Compound | remaining binding at 10 µM (SRMS) | remaining binding at 10 µM (MLCK) | remaining binding at 10 µM (TNNI3K) | remaining binding at 10 µM (FLT4) | remaining binding at 10 µM (PAK2) | remaining binding at 10 µM (YANK2) | remaining binding at 10 µM (CDK4-cyclinD3) | remaining binding at 10 µM (AMPK-alpha1) | remaining binding at 10 µM (SLK) | remaining binding at 10 µM (DCAMKL1) | remaining binding at 10 µM (MST3) | remaining binding at 10 µM (EPHB4) | remaining binding at 10 µM (AURKA) | remaining binding at 10 µM (ADCK4) | remaining binding at 10 µM (TIE2) | remaining binding at 10 µM (WNK4) | remaining binding at 10 µM (EGFR(G719C)) | remaining binding at 10 µM (ZAK) | remaining binding at 10 µM (WNK3) | remaining binding at 10 µM (PIP5K1C) | further results
COc1cc(N2CCC(N3CCN(C)CC3)CC2)ccc1Nc1ncc2c(n1)N(C)c1sc(C)nc1C(=O)N2 [Compound 3, 6-((2-methoxy-4-(4-(4-methylpiperazin-1-yl)piperidin-1-yl)phenyl)amino)-2,4-dimethyl-4,9-dihydro-10H-pyrimido[5,4-b]thiazolo[5,4-e][1,4]diazepin-10-one] | 78% | 94% | 79% | 92% | 72% | 85% | 95% | 79% | 70% | 91% | 89% | 61% | 92% | 83% | 83% | 100% | 34% | 92% | 100% | 99% | remaining binding at 10 µM (LTK): 81%; remaining binding at 10 µM (SBK1): 100%; remaining binding at 10 µM (MEK6): 100%; remaining binding at 10 µM (STK35): 89%; remaining binding at 10 µM (AKT1): 89%; remaining binding at 10 µM (SNARK): 100%; remaining binding at 10 µM (CDK11): 71%; remaining binding at 10 µM (MYLK): 53%; remaining binding at 10 µM [1]: 100%; remaining binding at 10 µM (LKB1): 44%; remaining binding at 10 µM (PIK3CA(Q546K)): 100%; remaining binding at 10 µM (PLK3): 52%; remaining binding at 10 µM (DAPK3): 62%; remaining binding at 10 µM (IKK-alpha): 100%
COc1cc(N2CCC(N3CCN(C)CC3)CC2)ccc1Nc1ncc2c(n1)N(C)c1sc(C)nc1C(=O)N2C [Compound 5, 6-((2-methoxy-4-(4-(4-methylpiperazin-1-yl)piperidin-1-yl)phenyl)amino)-2,4,9-trimethyl-4,9-dihydro-10H-pyrimido[5,4-b]thiazolo[5,4-e][1,4]diazepin-10-one] | 97% | 100% | 88% | 100% | 89% | 100% | 100% | 91% | 100% | 7.9% | 90% | 100% | 78% | 73% | 100% | 100% | 100% | 100% | 97% | 95% | remaining binding at 10 µM (LTK): 97%; remaining binding at 10 µM (SBK1): 98%; remaining binding at 10 µM (MEK6): 98%; remaining binding at 10 µM (STK35): 100%; remaining binding at 10 µM (AKT1): 100%; remaining binding at 10 µM (SNARK): 91%; remaining binding at 10 µM (CDK11): 90%; remaining binding at 10 µM (MYLK): 36%; remaining binding at 10 µM [1]: 100%; remaining binding at 10 µM (LKB1): 100%; remaining binding at 10 µM (PIK3CA(Q546K)): 94%; remaining binding at 10 µM (PLK3): 20%; remaining binding at 10 µM (DAPK3): 97%; remaining binding at 10 µM (IKK-alpha): 100%

Reference: US12365696B2, “Small-molecule focal adhesion kinase (FAK) inhibitors” (DANA-FARBER CANCER INSTITUTE, INC., priority 2019, dated 2025)
